Measurements as given in patent US20230114728A1 (Venatorx Pharmaceuticals, Inc., priority 2019, published 2023).
≈ marks a conversion by molar mass, not a printed value.

Legend:
Experiment in all cases: Broth microdilution MIC in CAMHB
Type in all cases: cell-based
[1] = tested on: A. baumannii ATCC 19606; details: Acinetobacter baumannii, ATCC19606; MHB; read-out: Minimum Inhibitory Concentration, A. baumannii ATCC 19606
Summary of the method: (§1)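 Hyper-permeable or efflux-deficient strains serve to probe outer-membrane penetration. Growth inhibition is scored visually after 16-20 h at 37° C in CAMHB, starting from 2-8×10^5 CFU/mL.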

[2] = tested on: E. coli 901C; details: Escherichia coli; E. coli 901C (hyper-permeable); MHB; read-out: Minimum Inhibitory Concentration, E. coli 901C
Summary of the method: as §1

[3] = tested on: E. coli AG100A; details: Escherichia coli, read-out: Minimum Inhibitory Concentration, E. coli AG100A
Summary of the method: as §1

[4] = tested on: E. coli AG100; details: Escherichia coli; E. coli AG100 (wild-type parent); MHB; read-out: Minimum Inhibitory Concentration, E. coli AG100
Summary of the method: as §1

[5] = tested on: E. coli ATCC 25922; details: Escherichia coli, ATCC25922; E. coli ATCC 25922; MHB; read-out: Minimum Inhibitory Concentration, E. coli 25922
Summary of the method: as §1

[6] = tested on: E. coli D22; details: Escherichia coli; E. coli D22 (hyper-permeable); MHB; read-out: Minimum Inhibitory Concentration, E. coli D22
Summary of the method: as §1

[7] = tested on: K. pneumoniae 848844 producing SHV-11 and KPC-2; details: Klebsiella pneumoniae, read-out: Minimum Inhibitory Concentration, K. pneumoniae 848844
Summary of the method: as §1

[8] = tested on: K. pneumoniae SI-117 producing VIM-1; details: Klebsiella pneumoniae, read-out: Minimum Inhibitory Concentration, K. pneumoniae SI-117
Summary of the method: as §1

[9] = tested on: K. pneumoniae UMM producing SHV-5 and KPC-2; details: Klebsiella pneumoniae, read-out: Minimum Inhibitory Concentration, K. pneumoniae UMM
Summary of the method: as §1

[10] = tested on: P. aeruginosa (ΔmexAB-oprM); details: Pseudomonas aeruginosa, read-out: Minimum Inhibitory Concentration, P. aeruginosa ΔmexAB-OprM
Summary of the method: as §1

[11] = tested on: P. aeruginosa ATCC 27853; details: Pseudomonas aeruginosa, ATCC27853; MHB; read-out: Minimum Inhibitory Concentration, P. aeruginosa ATCC 27853
Summary of the method: as §1

[12] = tested on: P. aeruginosa ATCC 35151; details: Pseudomonas aeruginosa, ATCC35151; MHB; hyper-permeable strain; read-out: Minimum Inhibitory Concentration, P. aeruginosa ATCC 35151
Summary of the method: as §1

SMILES | MIC [1] | MIC [2] | MIC [3] | MIC [4] | MIC [5] | MIC [6] | MIC [7] | MIC [8] | MIC [9] | MIC [10] | MIC [11] | MIC [12]
CCN1CCN(C(=O)N[C@@H](C(=O)N[C@H]2Cc3cccc(C(=O)O)c3OB2O)c2c(O)cc(O)cc2F)C(=O)C1=O (single isomer, unassigned) [Example 182] | 32 to 64 µg/mL (≈ 57.3 to 115 µM) | < 0.25 µg/mL | 0.5 to 1 µg/mL (≈ 0.896 to 1.79 µM) | 8 to 16 µg/mL (≈ 14.3 to 28.7 µM) | 8 to 16 µg/mL (≈ 14.3 to 28.7 µM) | 0.5 to 1 µg/mL (≈ 0.896 to 1.79 µM) | 32 to 64 µg/mL (≈ 57.3 to 115 µM) | 32 to 64 µg/mL (≈ 57.3 to 115 µM) | 8 to 16 µg/mL (≈ 14.3 to 28.7 µM) | 8 to 16 µg/mL (≈ 14.3 to 28.7 µM) | > 128 µg/mL | 2 to 4 µg/mL (≈ 3.58 to 7.16 µM)
NCCN1CCN(C(=O)N[C@@H](C(=O)N[C@H]2Cc3cccc(C(=O)O)c3OB2O)c2ccc(O)c(Cl)c2F)C(=O)C1=O (single isomer, unassigned) [Example 186] | > 128 µg/mL | 0.5 to 1 µg/mL (≈ 0.845 to 1.69 µM) | 2 to 4 µg/mL (≈ 3.38 to 6.76 µM) | 8 to 16 µg/mL (≈ 13.5 to 27 µM) | 8 to 16 µg/mL (≈ 13.5 to 27 µM) | 2 to 4 µg/mL (≈ 3.38 to 6.76 µM) | 32 to 64 µg/mL (≈ 54.1 to 108 µM) | 32 to 64 µg/mL (≈ 54.1 to 108 µM) | 32 to 64 µg/mL (≈ 54.1 to 108 µM) | 8 to 16 µg/mL (≈ 13.5 to 27 µM) | 32 to 64 µg/mL (≈ 54.1 to 108 µM) | < 0.25 µg/mL
NCCN1CCN(C(=O)N[C@H](C(=O)N[C@H]2Cc3cccc(C(=O)O)c3OB2O)c2ccc(O)c(Cl)c2F)C(=O)C1=O (single isomer, unassigned) [Example 187] | > 128 µg/mL | 2 to 4 µg/mL (≈ 3.38 to 6.76 µM) | 8 to 16 µg/mL (≈ 13.5 to 27 µM) | > 128 µg/mL | > 128 µg/mL | 32 to 64 µg/mL (≈ 54.1 to 108 µM) | > 128 µg/mL | > 128 µg/mL | > 128 µg/mL | 32 to 64 µg/mL (≈ 54.1 to 108 µM) | > 128 µg/mL | 2 to 4 µg/mL (≈ 3.38 to 6.76 µM)
CS(=O)(=O)N1CCN(C(=O)N[C@@H](C(=O)N[C@H]2Cc3ccc(F)c(C(=O)O)c3OB2O)c2cc(F)c(O)c(O)c2Cl)C1=O (single isomer, unassigned) [Example 189] | 0.5 to 1 µg/mL (≈ 0.79 to 1.58 µM) | 0.5 to 1 µg/mL (≈ 0.79 to 1.58 µM) | 2 to 4 µg/mL (≈ 3.16 to 6.32 µM) | 8 to 16 µg/mL (≈ 12.6 to 25.3 µM) | 2 to 4 µg/mL (≈ 3.16 to 6.32 µM) | 0.5 to 1 µg/mL (≈ 0.79 to 1.58 µM) | 2 to 4 µg/mL (≈ 3.16 to 6.32 µM) | 8 to 16 µg/mL (≈ 12.6 to 25.3 µM) | > 128 µg/mL | 8 to 16 µg/mL (≈ 12.6 to 25.3 µM) | 2 to 4 µg/mL (≈ 3.16 to 6.32 µM) | 0.5 to 1 µg/mL (≈ 0.79 to 1.58 µM)
O=C(NCCCN1CCN(C(=O)NC(C(=O)N[C@H]2Cc3cccc(C(=O)O)c3OB2O)c2ncc(O)cc2F)C(=O)C1=O)c1ccc(O)c(O)c1Cl (stereo partly drawn) [Example 1, (3R)-3-(2-(4-(3-(2-chloro-3,4-dihydroxybenzamido)propyl)-2,3-dioxopiperazine-1-carboxamido)-2-(3-fluoro-5-hydroxypyridin-2-yl)acetamido)-2-hydroxy-3,4-dihydro-2H-benzo[e][1,2]oxaborinine-8-carboxylic acid] | – | 8 to 16 µg/mL (≈ 10.8 to 21.5 µM) | 8 to 16 µg/mL (≈ 10.8 to 21.5 µM) | 32 to 64 µg/mL (≈ 43.1 to 86.2 µM) | > 128 µg/mL | 8 to 16 µg/mL (≈ 10.8 to 21.5 µM) | 32 to 64 µg/mL (≈ 43.1 to 86.2 µM) | 32 to 64 µg/mL (≈ 43.1 to 86.2 µM) | 8 to 16 µg/mL (≈ 10.8 to 21.5 µM) | – | – | –
C[C@H]1CN(CCNC(=O)c2ccc(O)c(O)c2Cl)C(=O)C(=O)N1C(=O)NC(C(=O)N[C@H]1Cc2cccc(C(=O)O)c2OB1O)c1ncc(O)cc1F (stereo partly drawn) [Example 2, (3R)-3-(2-((S)-4-(2-(2-chloro-3,4-dihydroxybenzamido)ethyl)-6-methyl-2,3-dioxopiperazine-1-carboxamido)-2-(3-fluoro-5-hydroxypyridin-2-yl)acetamido)-2-hydroxy-3,4-dihydro-2H-benzo[e][1,2]oxaborinine-8-carboxylic acid] | – | 0.5 to 1 µg/mL (≈ 0.673 to 1.35 µM) | 0.5 to 1 µg/mL (≈ 0.673 to 1.35 µM) | 2 to 4 µg/mL (≈ 2.69 to 5.38 µM) | 8 to 16 µg/mL (≈ 10.8 to 21.5 µM) | 2 to 4 µg/mL (≈ 2.69 to 5.38 µM) | 8 to 16 µg/mL (≈ 10.8 to 21.5 µM) | 8 to 16 µg/mL (≈ 10.8 to 21.5 µM) | 2 to 4 µg/mL (≈ 2.69 to 5.38 µM) | – | – | –
O=C(NCCCN1CCN(C(=O)NC(C(=O)N[C@H]2Cc3ccc(F)c(C(=O)O)c3OB2O)c2ncc(O)cc2F)C(=O)C1=O)c1ccc(O)c(O)c1Cl (stereo partly drawn) [Example 3, (3R)-3-(2-(4-(3-(2-chloro-3,4-dihydroxybenzamido)propyl)-2,3-dioxopiperazine-1-carboxamido)-2-(3-fluoro-5-hydroxypyridin-2-yl)acetamido)-7-fluoro-2-hydroxy-3,4-dihydro-2H-benzo[e][1,2]oxaborinine-8-carboxylic acid] | – | 8 to 16 µg/mL (≈ 10.5 to 21 µM) | 32 to 64 µg/mL (≈ 42.1 to 84.1 µM) | 32 to 64 µg/mL (≈ 42.1 to 84.1 µM) | > 128 µg/mL | 32 to 64 µg/mL (≈ 42.1 to 84.1 µM) | 32 to 64 µg/mL (≈ 42.1 to 84.1 µM) | > 128 µg/mL | 32 to 64 µg/mL (≈ 42.1 to 84.1 µM) | – | – | –
